Experimental data published in patent publication US20130316963A1, “INNATE DEFENCE REGULATORY PEPTIDE COMPOSITIONS FOR TREATMENT OF ARTHRITIS” (UNIVERSITY OF MANITOBA, priority 2010, published 2013).

Tests used:
Type in all cases: cell-based
human FLS cells [1] = test: Cytokine and chemokine production in human FLS cell supernatants (BD Cytometric Bead Array)
Procedure: Tissue culture supernatants were harvested after stimulation of human FLS cells with various cytokines (as indicated) with and without IDR peptides after 24 hr. The supernatants were centrifuged at 1500×g for 7 min to obtain cell-free samples. The samples were aliquoted and stored at −20° C. until further use. Production of MMP-3 in the tissue culture supernatants was monitored using Quantikine® human MMP-3 (total) ELISA kit (Quantikine is a registered trademark of R&D Systems, Inc. Minneapolis, Minn., USA) as per the manufacturer's instructions. Production of pro-inflammatory cytokines IL-1β, IL-6, IL-10, TNF, IL-12p70 and chemokines IL-8, RANTES, MIG, MCP-1, IP-10 in the tissue culture supernatants was determined using preconfigured multiplex BD Cytometric Bead Array (CBA) human inflammation and chemokine kits respectively, employing the FACS Calibur flow cytometer (BD Biosciences, Mississauga, ON, Canada) as per the manufacture's instructions. The concentration of the cytokines or chemokines in the tissue culture supernatants was evaluated by establishing a standard curve with serial dilutions of the recombinant human cytokines or chemokines as required.
To evaluate whether IDR-1002 alone could induce inflammatory responses, human FLS cells were stimulated with IDR-1002 (100 μg/ml) for 24 hr. BD Cytometric Bead Array (CBA) preconfigured human inflammation (IL-8, IL-1β, IL-6, IL-10, TNF, IL-12p70) kit was used to evaluate protein secretion of the various analytes in the tissue culture supernatants employing FACS Calibur flow cytometer.
IL-1β-induced protein profiles (proteome) in the presence and absence of IDR-1002 were evaluated using quantitative proteomics iTRAQ® tools employing different isobaric tags. Human FLS cells were treated with IDR-1002 (100 μg/ml) for 45 min prior to IL-1β (10 ng/ml) stimulation for 24 hr. Tissue culture supernatants were monitored for protein production of MMP-3 and chemokines IL-8 and MCP-1 production, in order to evaluate the validity of the assay before processing the cell lysates for quantitative proteomic evaluation. MMP-3 production was monitored in the tissue culture supernatants by ELISA, and chemokines IL-8 and MCP-1 production were evaluated by BD preconfigured human chemokine Cytometric Bead Array.

NF-κB = test: Secreted NF-κB luciferase reporter assay in rabbit synoviocyte HIG-82 cells; conditions: IL-1β 10 ng/ml, IDR-1002 100 μg/ml, 6 hr, FIG. 3
Procedure: Rabbit synoviocyte HIG-82 cells were transiently transfected with pNFκB-MetLuc2-Reporter Vector (Clontech laboratories Inc., Mountain View, Calif., USA) or the provided control vector as per the manufacturer's instructions. Various stimulants were added to the transfected cells in culture media containing 1% (v/v) FBS. The cells were stimulated with recombinant human IL-1β in the presence and absence of IDR-1002 for 6 hr. The peptide was added either 45 min prior to, or at the time of cytokine stimulation. The activation of NF-κB was monitored by employing the Ready-To-Glow Secreted NF-κB Luciferase Reporter Assay (Clontech) as per the manufacturer's instructions.
Transcription factor NF-κB is central to the destructive effects associated with the escalation and sustenance of inflammatory responses pivotal in chronic inflammatory diseases including arthritis. Quantitative proteomics evaluation using iTRAQ® labelling pointed to the possibility that the peptide IDR-1002 altered IL-1β-induced NF-κB activation. Therefore, this study further evaluated the impact of IDR-1002 on IL-1β-induced direct activation of NF-κB in synovial fibroblasts. […] The activation of NF-κB was monitored by employing the Ready-To-Glow Secreted NF-κB Luciferase Reporter Assay (Clontech) as per the manufacturer's instructions.

human FLS cells [2] = test: IL-IRA production in human FLS cells stimulated with IL-1β (ELISA); conditions: 48 hr, FIG. 5
Procedure: Tissue culture supernatants were harvested from human FLS cells after stimulation for 48 hr with IL-1β with and without IDR-1002. The supernatants were centrifuged at 1500×g for 7 min to obtain cell-free samples. The samples were aliquoted and stored at −20° C. until further use. Production of IL-IRA in the tissue culture supernatants was monitored using Quantikine® human […] ELISA following the manufacturer's instructions. […] Results shown are an average of at least three independent biological experiments performed with cells isolated from synovial tissues obtained from independent donors±standard error (*p<0.05, **p<0.01).

[3] = system: Human macrophage-like THP-1 cells; test: TNF-α and IL-1β production in IL-32-stimulated THP-1 cells (ELISA); conditions: 24 hr; for reduction of IL-32-induced TNF-α production: FIG. 7A; for reduction of IL-32-induced IL-1β production: FIG. 7B
Procedure: Human macrophage-like THP-1 cells were stimulated for 24 hr with pro-inflammatory cytokine IL-32 (20 ng/ml) in the presence and absence of IDR-1002 (10 or 20 μM). The tissue culture supernatants were monitored for the production of pro-inflammatory cytokines TNF-α and IL-1β after 24 hr by ELISA as described previously.

## VQRWLIVWRIRK (IDR-1002 peptide)
Human FLS cells [1]; IDR-1002 100 μg/ml alone, 24 hr
  IL-10 and IL-12p70 in supernatants by flow cytometry: could not be detected
Human FLS cells [1]; IDR-1002 100 μg/ml for 45 min prior to IL-1β 10 ng/ml, 24 hr, FIG. 2B
  suppression of IL-1β-induced chemokine MCP-1 production: > 60%
Human FLS cells [1]; IDR-1002 100 μg/ml for 45 min prior to IL-1β 10 ng/ml, 24 hr, FIG. 2C
  suppression of IL-1β-induced chemokine IL-8 production: 20%
Human FLS cells [1]; IDR-1002 100 μg/ml, 24 hr, vs un-stimulated control cells, data not shown
  release of pro-inflammatory cytokines TNF-α, IL-1β or IL6 by peptide alone: did not induce
Human FLS cells [1]; IDR-1002 alone, human FLS
  chemokine production induced by peptide by itself in FLS: did not induce chemokine production by itself
NF-κB
  suppression of IL-1β-induced activation of NF-κB: greater than 70%
Human FLS cells [2]
  IL-IRA production with IL-1β in the presence of IDR-1002, relative to IL-1β in the presence of IDR-1: more than twice as much IL-IRA
Human FLS cells [2]; IL-1β alone about 150 pg/ml
  IL-IRA production with IL-1β in the presence of IDR-1002, relative to IL-1β alone: more than twice as much IL-IRA
Human FLS cells [2]; no IL-1β
  IL-IRA production by IDR-1002 alone: did not stimulate production of IL-IRA
[3]; 10 μM IDR-1002, IL-32 20 ng/ml
  reduction of IL-32-induced TNF-α production: 40%
  reduction of IL-32-induced IL-1β production: about 40%
[3]; 20 μM IDR-1002, IL-32 20 ng/ml
  reduction of IL-32-induced TNF-α production: about 70%
  reduction of IL-32-induced IL-1β production: about 65%
